Assay [1] concerns the target Histone deacetylase 3/NCoR1 (Homo sapiens, UniProt O15379). The assay is described as follows: Inhibition of recombinant human GST-fused HDAC3/NCOR1 (397 to 503 residues) expressed in baculovirus infected insect cells using Ac-Leu-Gly-Lys(Ac)-AMC as substrate measured after 30 mins by fluorescence assay.
Assay [2] concerns MDA-MB-231. The assay is described as follows: Induction of apoptosis in human MDA-MB-231 cells assessed as late apoptotic cells at 10 uM measured after 24 hrs by Annexin-V/propidium iodide staining based flow cytometry (reference value: 0.71 to 2.94%). It is filed as functional.
A further assay addresses Histone deacetylase 1 (Homo sapiens, UniProt Q13547). The assay is described as follows: Inhibition of recombinant human His-tagged HDAC1 expressed in insect cells using Ac-Leu-Gly-Lys(Ac)-AMC as substrate measured after 30 mins by fluorescence assay.
In assay [3] the test system is MDA-MB-231. In words: Induction of apoptosis in human MDA-MB-231 cells assessed as up regulation of Bax expression at 2.5 to 10 uM measured after 24 hrs by Western blot analysis. It is filed as functional, cell-based. To be noted: dose 2.5-10 µM.
Assay [4] relates to MDA-MB-231. In words: Induction of autophagy in human MDA-MB-231 cells assessed as decrease in SQSTM1/p62 expression at 2.5 to 10 uM measured after 24 hrs by Western blot analysis. As to conditions: dose 2.5-10 µM. It is filed as functional, cell-based.
Assay [5] has as its target T1, Protein deacetylase HDAC6 (Homo sapiens, UniProt Q9UBN7).
T1 sequence (Q9UBN7 whole entry): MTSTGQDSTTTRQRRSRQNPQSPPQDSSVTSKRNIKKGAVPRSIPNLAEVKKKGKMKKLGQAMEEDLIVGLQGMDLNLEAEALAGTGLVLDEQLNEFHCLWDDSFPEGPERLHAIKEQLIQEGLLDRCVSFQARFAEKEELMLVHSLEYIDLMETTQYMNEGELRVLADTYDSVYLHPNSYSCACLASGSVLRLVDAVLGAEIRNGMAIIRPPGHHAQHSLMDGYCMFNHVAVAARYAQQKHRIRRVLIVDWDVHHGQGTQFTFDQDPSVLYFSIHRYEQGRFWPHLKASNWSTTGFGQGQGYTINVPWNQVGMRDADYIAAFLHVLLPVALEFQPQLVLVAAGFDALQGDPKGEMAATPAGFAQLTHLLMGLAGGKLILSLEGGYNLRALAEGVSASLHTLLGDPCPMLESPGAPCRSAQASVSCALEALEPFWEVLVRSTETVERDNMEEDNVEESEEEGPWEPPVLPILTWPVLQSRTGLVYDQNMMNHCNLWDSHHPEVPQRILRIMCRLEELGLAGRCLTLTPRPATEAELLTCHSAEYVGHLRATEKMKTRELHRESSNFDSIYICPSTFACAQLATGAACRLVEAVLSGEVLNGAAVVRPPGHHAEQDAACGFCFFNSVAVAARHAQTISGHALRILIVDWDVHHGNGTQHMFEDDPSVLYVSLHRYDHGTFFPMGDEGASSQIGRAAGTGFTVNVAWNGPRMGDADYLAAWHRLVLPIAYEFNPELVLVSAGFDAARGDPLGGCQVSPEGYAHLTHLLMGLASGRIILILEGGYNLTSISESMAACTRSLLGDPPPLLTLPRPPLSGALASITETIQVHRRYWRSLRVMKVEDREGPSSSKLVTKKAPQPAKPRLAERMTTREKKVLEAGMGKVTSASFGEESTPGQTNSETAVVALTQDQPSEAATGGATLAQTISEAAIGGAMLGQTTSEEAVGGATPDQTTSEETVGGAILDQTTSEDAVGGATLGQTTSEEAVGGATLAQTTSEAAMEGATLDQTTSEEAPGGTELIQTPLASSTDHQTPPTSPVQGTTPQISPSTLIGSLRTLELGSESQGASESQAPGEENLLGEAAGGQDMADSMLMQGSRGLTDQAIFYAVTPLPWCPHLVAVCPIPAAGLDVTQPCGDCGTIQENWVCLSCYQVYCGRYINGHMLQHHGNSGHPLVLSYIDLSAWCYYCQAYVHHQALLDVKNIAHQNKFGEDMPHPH
The assay is described as follows: Inhibition of recombinant human His-tagged HDAC6 expressed in baculovirus infected insect cells using Ac-Leu-Gly-Lys(Ac)-AMC as substrate measured after 30 mins by fluorescence assay.

The test system of assay [6] is MDA-MB-231. The assay is described as follows: Induction of apoptosis in human MDA-MB-231 cells measured after 24 hrs by Annexin-V/propidium iodide staining based flow cytometry. The assay is classed as functional, cell-based.
In assay [7] the test system is MDA-MB-231. In words: Induction of apoptosis in human MDA-MB-231 cells assessed as late apoptotic cells at 5 uM measured after 24 hrs by Annexin-V/propidium iodide staining based flow cytometry (reference value: 0.71 to 2.94%). It is filed as functional.
Assay [8] deals with MDA-MB-231. The assay is described as follows: Induction of endoplasmic reticulum stress in human MDA-MB-231 cells assessed as increase in PERK expression at 2.5 to 10 uM measured after 24 hrs by DAPI staining based immunofluorescence assay. It is filed as functional, cell-based. To be noted: dose 2.5-10 µM.
Assay [9] has as its system MDA-MB-231. In words: Induction of apoptosis in human MDA-MB-231 cells assessed as necrotic cells at 10 uM measured after 24 hrs by Annexin-V/propidium iodide staining based flow cytometry (reference value: 0.22 to 0.46%). The assay is classed as functional.
Assay [10] concerns MDA-MB-231. In words: Induction of apoptosis in human MDA-MB-231 cells assessed as increase in cleaved caspase-3 expression at 2.5 to 10 uM measured after 24 hrs by Western blot analysis. It is filed as functional, cell-based. As to conditions: dose 2.5-10 µM.
Assay [11] deals with MDA-MB-231. In words: Induction of apoptosis in human MDA-MB-231 cells assessed as viable cells at 10 uM measured after 24 hrs by Annexin-V/propidium iodide staining based flow cytometry (reference value: 95.68 to 98.38%). It is filed as functional. As to conditions: read-out: Activity.
The subject of assay [12] is MDA-MB-231. In words: Induction of autophagy in human MDA-MB-231 cells assessed as increase in LC3II expression at 2.5 to 10 uM measured after 24 hrs by Western blot analysis. The assay is classed as functional, cell-based. As to conditions: dose 2.5-10 µM.
Another assay has as its target T2, Histone deacetylase 8 (Homo sapiens, UniProt Q9BY41).
T2 sequence (Q9BY41 whole entry): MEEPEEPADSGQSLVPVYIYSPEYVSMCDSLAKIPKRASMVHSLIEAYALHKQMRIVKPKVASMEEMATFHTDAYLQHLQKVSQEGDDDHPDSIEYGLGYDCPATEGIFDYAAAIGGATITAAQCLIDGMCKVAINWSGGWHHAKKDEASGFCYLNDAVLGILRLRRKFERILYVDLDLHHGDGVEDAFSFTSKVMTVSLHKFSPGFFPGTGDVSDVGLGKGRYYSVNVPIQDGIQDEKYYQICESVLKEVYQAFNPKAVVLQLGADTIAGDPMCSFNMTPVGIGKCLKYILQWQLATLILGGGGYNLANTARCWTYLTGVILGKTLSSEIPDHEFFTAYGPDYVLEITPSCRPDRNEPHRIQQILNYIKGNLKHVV
In words: Inhibition of recombinant human full-length C-terminal His-tagged HDAC8 expressed in baculovirus infected Sf9 insect cells using Ac-Leu-Gly-Lys(Tfa)-AMC as substrate measured after 30 mins by fluorescence assay.

In assay [13] the test system is MDA-MB-231. In words: Induction of apoptosis in human MDA-MB-231 cells assessed as increase in cleaved caspase-8 expression at 2.5 to 10 uM measured after 24 hrs by Western blot analysis. It is filed as functional, cell-based. To be noted: dose 2.5-10 µM.

Drawing on ChEMBL document CHEMBL4765420, “Design, synthesis and biological evaluation of novel HDAC inhibitors with improved pharmacokinetic profile in breast cancer” (Eur J Med Chem, 2020), this text covers IC50, Activity and viability for 1 compound.

Activity calls are given as the source filed them. The calls are words filed in the database; no cut-off is given here.

Histone deacetylase 3/NCoR1, sequence (O15379 whole entry, the tested form may be a part): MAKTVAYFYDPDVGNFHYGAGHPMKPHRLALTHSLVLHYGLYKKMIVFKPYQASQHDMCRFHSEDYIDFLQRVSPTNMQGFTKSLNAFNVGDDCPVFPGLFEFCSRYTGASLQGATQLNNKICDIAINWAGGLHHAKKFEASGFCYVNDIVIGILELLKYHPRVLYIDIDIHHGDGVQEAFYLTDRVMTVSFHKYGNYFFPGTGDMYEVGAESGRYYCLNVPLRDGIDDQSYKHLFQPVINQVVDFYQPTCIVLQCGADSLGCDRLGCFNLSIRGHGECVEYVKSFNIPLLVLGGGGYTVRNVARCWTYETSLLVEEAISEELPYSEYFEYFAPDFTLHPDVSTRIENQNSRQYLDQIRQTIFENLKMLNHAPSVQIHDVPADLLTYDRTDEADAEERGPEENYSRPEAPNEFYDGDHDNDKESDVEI
Histone deacetylase 3/NCoR1, sequence (O75376 whole entry, further chain, the tested form may be a part): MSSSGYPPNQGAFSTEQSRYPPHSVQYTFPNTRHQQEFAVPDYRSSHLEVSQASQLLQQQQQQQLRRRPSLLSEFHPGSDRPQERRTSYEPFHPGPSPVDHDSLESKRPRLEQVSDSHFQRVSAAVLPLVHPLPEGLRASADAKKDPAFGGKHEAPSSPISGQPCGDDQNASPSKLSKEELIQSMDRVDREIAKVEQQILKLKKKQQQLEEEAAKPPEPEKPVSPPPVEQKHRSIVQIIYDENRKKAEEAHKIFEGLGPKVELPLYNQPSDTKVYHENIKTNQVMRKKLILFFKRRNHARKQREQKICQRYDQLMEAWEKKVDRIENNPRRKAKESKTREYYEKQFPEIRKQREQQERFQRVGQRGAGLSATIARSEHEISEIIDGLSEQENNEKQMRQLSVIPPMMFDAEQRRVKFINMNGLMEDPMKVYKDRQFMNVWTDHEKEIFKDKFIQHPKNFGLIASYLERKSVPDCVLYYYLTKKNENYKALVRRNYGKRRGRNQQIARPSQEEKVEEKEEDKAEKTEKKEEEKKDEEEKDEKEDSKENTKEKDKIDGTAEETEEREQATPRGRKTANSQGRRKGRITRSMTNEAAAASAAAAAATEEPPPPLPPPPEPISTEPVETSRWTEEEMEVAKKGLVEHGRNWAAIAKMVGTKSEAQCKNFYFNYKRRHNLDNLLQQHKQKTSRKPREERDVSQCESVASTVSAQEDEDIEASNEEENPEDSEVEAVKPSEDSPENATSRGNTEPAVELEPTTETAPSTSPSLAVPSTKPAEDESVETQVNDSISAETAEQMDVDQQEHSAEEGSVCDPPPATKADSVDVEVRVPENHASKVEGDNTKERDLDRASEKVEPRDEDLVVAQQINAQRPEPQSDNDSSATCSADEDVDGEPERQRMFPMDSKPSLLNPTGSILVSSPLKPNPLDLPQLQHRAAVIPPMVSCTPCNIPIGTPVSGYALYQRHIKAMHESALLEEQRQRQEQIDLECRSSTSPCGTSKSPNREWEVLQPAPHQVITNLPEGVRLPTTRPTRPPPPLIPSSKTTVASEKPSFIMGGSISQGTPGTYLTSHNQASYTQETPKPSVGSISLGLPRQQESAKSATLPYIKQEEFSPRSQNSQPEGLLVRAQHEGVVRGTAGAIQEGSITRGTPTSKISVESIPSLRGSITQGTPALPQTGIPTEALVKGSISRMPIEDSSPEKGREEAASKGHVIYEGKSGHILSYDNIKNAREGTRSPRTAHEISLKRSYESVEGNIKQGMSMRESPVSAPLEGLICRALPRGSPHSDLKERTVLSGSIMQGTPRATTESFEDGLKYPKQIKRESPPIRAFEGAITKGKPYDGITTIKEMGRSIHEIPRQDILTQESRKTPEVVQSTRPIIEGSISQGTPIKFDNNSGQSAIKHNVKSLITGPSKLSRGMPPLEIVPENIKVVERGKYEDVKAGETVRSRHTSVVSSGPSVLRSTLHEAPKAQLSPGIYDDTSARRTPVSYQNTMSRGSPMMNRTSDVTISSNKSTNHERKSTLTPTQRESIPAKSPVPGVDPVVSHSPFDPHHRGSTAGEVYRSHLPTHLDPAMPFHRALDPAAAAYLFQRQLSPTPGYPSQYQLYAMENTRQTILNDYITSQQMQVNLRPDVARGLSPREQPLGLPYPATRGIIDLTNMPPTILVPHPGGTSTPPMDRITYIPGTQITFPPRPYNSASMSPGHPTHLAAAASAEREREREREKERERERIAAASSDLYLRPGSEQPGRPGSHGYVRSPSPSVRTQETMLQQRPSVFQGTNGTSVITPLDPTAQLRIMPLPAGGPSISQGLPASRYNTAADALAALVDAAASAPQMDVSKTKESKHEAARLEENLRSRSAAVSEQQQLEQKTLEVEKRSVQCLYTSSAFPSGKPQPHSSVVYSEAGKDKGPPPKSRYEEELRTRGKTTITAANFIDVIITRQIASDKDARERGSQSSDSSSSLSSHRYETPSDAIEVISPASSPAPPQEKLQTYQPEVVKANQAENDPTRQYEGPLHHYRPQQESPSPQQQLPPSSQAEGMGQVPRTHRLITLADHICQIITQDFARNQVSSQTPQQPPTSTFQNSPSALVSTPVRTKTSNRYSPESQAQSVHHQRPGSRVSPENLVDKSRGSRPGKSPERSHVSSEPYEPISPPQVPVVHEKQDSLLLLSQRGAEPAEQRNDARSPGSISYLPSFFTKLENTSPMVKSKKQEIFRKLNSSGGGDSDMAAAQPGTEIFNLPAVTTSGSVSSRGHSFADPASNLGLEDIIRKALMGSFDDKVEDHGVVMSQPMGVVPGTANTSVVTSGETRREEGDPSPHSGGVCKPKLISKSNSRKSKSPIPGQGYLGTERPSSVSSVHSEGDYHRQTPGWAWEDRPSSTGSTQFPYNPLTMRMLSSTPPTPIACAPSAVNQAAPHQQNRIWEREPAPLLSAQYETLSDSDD
Histone deacetylase 1, sequence (Q13547 whole entry): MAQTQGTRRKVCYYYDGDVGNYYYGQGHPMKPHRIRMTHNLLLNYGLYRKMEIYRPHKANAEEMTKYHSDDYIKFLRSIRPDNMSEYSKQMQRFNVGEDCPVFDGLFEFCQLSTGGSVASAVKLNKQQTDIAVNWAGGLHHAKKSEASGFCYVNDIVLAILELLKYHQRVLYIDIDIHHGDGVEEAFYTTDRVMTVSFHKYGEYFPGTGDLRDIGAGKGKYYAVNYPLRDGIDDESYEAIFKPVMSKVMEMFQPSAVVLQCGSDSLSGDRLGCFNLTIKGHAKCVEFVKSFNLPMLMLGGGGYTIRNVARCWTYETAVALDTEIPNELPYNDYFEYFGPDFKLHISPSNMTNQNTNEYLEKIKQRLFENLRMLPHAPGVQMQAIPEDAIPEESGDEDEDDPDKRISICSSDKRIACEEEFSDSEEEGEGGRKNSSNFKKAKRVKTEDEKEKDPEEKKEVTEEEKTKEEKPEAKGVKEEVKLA

On to `COc1cc(OC)c2c(N3CCS(=O)(=O)CC3)nc(-c3cc(C)c(OCCCCCC(=O)NO)c(C)c3)nc2c1`, for which the IC50 in assay [1] was determined as 106 nM; at Histone deacetylase 1, 99.6 nM; in [5] it was 55.3 nM; on Histone deacetylase 8 it was 404 nM. In addition, the Activity was 35.5% in the assay with MDA-MB-231 [2], “Dose-dependent effect” in the assay with MDA-MB-231 [6], 11.79% in the assay on MDA-MB-231 [7] and 0.26% in the assay on MDA-MB-231 [9]. For the same compound, the outcome with MDA-MB-231 [3], in the assay with MDA-MB-231 [4], in the assay with MDA-MB-231 [8], in the assay on MDA-MB-231 [10], in the assay with MDA-MB-231 [12] and in the assay on MDA-MB-231 [13] was Active. In the assay with MDA-MB-231 [11], the viability at 10 µM amounted to 25.6%.
